{
  "source": "paper PMC3269340",
  "about": "“Pharmacokinetics of memantine in rats and mice” (PLoS Currents, 2012)",
  "assay": "Pharmacokinetics in rats after single iv, po or sc dose (plasma and brain)",
  "type": "in vivo, Sprague-Dawley rats",
  "details": "for half-life / AUC(0-inf) / Cmax: plasma",
  "description": "Sprague Dawley (SD) rats (138 adult males), and C57Bl/6 mice (140 adult males), were obtained (Hilltop Laboratories, Scottsdale, PA); 123 per species were used in the study and the remainder provided blank matrix. Animals were individually identified by tail markings and were acclimated to the study environment for 16-21 days prior to dose administration. Animals were individually housed in suspended wire caging, and were kept on a 12h/12h light/dark cycle except when interrupted for study procedures. Average room temperature was regulated in the range 18 to 29°C, average relative humidity of 30-70%, and an average daily airflow >10 fresh air changes/h. Animals were fed LabDiet^Ò Certified Rodent Diet 5002 Meal food ad libitum, except during fasting prior to dose administration, and had access to water ad libitum.\n[…] […] The concentration of memantine for the same dose level administered to mice was 0.2 mg eq./mL, and the dose volume was 5 mL/kg. The concentration of memantine in the 10mg eq./kg po and sc solutions was 5 mg eq./mL and the dose volume was 2 mL/kg for both rats and mice.\nDetails of the dose administration, body weights, clinical observations, plasma and brain sample collection and preparation are not shown in this report but are available upon request. Blood (for preparation of plasma) and brain samples were collected at 0.08, 0.25, 0.5, 1, 2, 4, 8, and 24h post-dose.\nSince all time points were terminal, mean memantine concentrations per time point were used to calculate the composite PK parameters by non-compartmental analysis using WinNonlin program, version 5.2 (Pharsight Corp., Mountain View, California). A model was selected based on the vascular (iv bolus) or extravascular (po or sc) routes of administration. For the iv route, plasma concentration at time zero was back extrapolated from the first two observed post dose plasma concentrations. For the po and sc routes, concentration at time zero was assumed to be zero. Plasma and tissue concentrations below the limit of quantitation were treated as absent samples for the purpose of calculating the mean plasma concentration values or for calculating PK parameters.\nThe area under the plasma concentration versus time curve (AUC) was calculated using the linear trapezoidal method (linear interpolation). When appropriate, the terminal elimination phase of the PK profile was estimated based on the best fit (r^2) using at least the last three observed concentrations. PK parameters describing the systemic exposure of memantine in plasma and brain were estimated from observed (rather than predicted) plasma/brain concentrations, the dosing regimen, the AUC, and the terminal elimination phase rate constant (kel) for each group. The portion of the AUC from the last measurable concentration to infinity was estimated from the equation Ct/kel, where Ct represents the last measurable concentration. The extrapolated portion of the AUC was used for the determination of AUC0-∞. The percent bioavailability (%F) was calculated by dividing the dose normalized extravascular plasma AUC0-∞ by the dose normalized iv plasma AUC0-∞ times 100. The bioavailability calculations assumed concentrations were in the linear range.\nConcentrations of memantine in rat and mouse plasma and brain were determined using an LC-MS/MS assay developed at ABC Laboratories.",
  "key": {"[1]": {"details": "rat brain, po dose increase from 1.22 to 10 mg/kg"}, "[2]": {"details": "rat plasma, po dose increase from 1.22 to 10 mg/kg"}},
  "note": "Read-outs that look alike come from different tables or passages of the source.",
  "data": [
    {"smiles": "CC12CC3CC(C)(C1)CC(N)(C3)C2", "note": "[memantine]", "values": [
      {"measurement": "half-life", "setting": "male, Sprague-Dawley, rat, iv, 1 mg/kg, rat, printed under 1 mg/kg (iv), cross-species summary, read-out: t 1/2 (converted)", "result": 4, "unit": "h"},
      {"measurement": "AUC(0-inf)", "setting": "male, Sprague-Dawley, rat, iv, 1.22 mg/kg, rat plasma, IV 1.22 mg eq./kg, read-out: AUC(0-∞)", "result": 1.64, "unit": "µM·h"},
      {"measurement": "half-life", "setting": "male, Sprague-Dawley, rat, iv, 1.22 mg/kg, rat plasma, IV 1.22 mg eq./kg, read-out: Half-life (t½) (converted)", "result": 1.9, "unit": "h"},
      {"measurement": "AUC(0-inf)", "setting": "male, Sprague-Dawley, rat, po, 1 mg/kg, rat, dose 1 mg/kg, single dose in solution (oral values of Table 1), read-out: AUC inf", "result": 0.6, "unit": "µM·h"},
      {"measurement": "Cmax", "setting": "male, Sprague-Dawley, rat, po, 1 mg/kg, rat, dose 1 mg/kg, single dose in solution, read-out: C max", "result": 100, "unit": "nM"},
      {"measurement": "AUC(0-inf)", "setting": "male, Sprague-Dawley, rat, po, 1.22 mg/kg, rat plasma, PO 1.22 mg eq./kg, read-out: AUC(0-∞)", "result": 0.594, "unit": "µM·h"},
      {"measurement": "half-life", "setting": "male, Sprague-Dawley, rat, po, 1.22 mg/kg, rat plasma, PO 1.22 mg eq./kg, read-out: Half-life (t½) (converted)", "result": 2.23, "unit": "h"},
      {"measurement": "Cmax", "setting": "male, Sprague-Dawley, rat, po, 1.22 mg/kg, rat plasma, PO 1.22 mg eq./kg, read-out: Observed Cmax", "result": 109, "unit": "nM"},
      {"measurement": "AUC(0-inf)", "setting": "male, Sprague-Dawley, rat, po, 10 mg/kg, rat plasma, PO 10.0 mg eq./kg, read-out: AUC(0-∞)", "result": 11.4, "unit": "µM·h"},
      {"measurement": "half-life", "setting": "male, Sprague-Dawley, rat, po, 10 mg/kg, rat plasma, PO 10.0 mg eq./kg, read-out: Half-life (t½) (converted)", "result": 3.92, "unit": "h"},
      {"measurement": "Cmax", "setting": "male, Sprague-Dawley, rat, po, 10 mg/kg, rat plasma, PO 10.0 mg eq./kg, read-out: Observed Cmax", "result": 3700, "unit": "nM"},
      {"measurement": "AUC(0-inf)", "setting": "male, Sprague-Dawley, rat, po, 10 mg/kg, rat, dose 10 mg/kg, single dose in solution (oral values of Table 1), read-out: AUC inf", "result": 11.4, "unit": "µM·h"},
      {"measurement": "Cmax", "setting": "male, Sprague-Dawley, rat, po, 10 mg/kg, rat, dose 10 mg/kg, single dose in solution, read-out: C max", "result": 3700, "unit": "nM"},
      {"measurement": "AUC(0-inf)", "setting": "male, Sprague-Dawley, rat, sc, 1 mg/kg, rat plasma, SC 1.0 mg eq./kg, read-out: AUC(0-∞)", "result": 1.69, "unit": "µM·h"},
      {"measurement": "half-life", "setting": "male, Sprague-Dawley, rat, sc, 1 mg/kg, rat plasma, SC 1.0 mg eq./kg, read-out: Half-life (t½) (converted)", "result": 1.81, "unit": "h"},
      {"measurement": "Cmax", "setting": "male, Sprague-Dawley, rat, sc, 1 mg/kg, rat plasma, SC 1.0 mg eq./kg, read-out: Observed Cmax", "result": 985, "unit": "nM"},
      {"measurement": "AUC(0-inf)", "setting": "male, Sprague-Dawley, rat, sc, 10 mg/kg, rat plasma, SC 10.0 mg eq./kg, read-out: AUC(0-∞)", "result": 25.8, "unit": "µM·h"},
      {"measurement": "half-life", "setting": "male, Sprague-Dawley, rat, sc, 10 mg/kg, rat plasma, SC 10.0 mg eq./kg, read-out: Half-life (t½) (converted)", "result": 2.59, "unit": "h"},
      {"measurement": "Cmax", "setting": "male, Sprague-Dawley, rat, sc, 10 mg/kg, rat plasma, SC 10.0 mg eq./kg, read-out: Observed Cmax", "result": 6190, "unit": "nM"},
      {"measurement": "Tmax", "setting": "male, Sprague-Dawley, subcutaneous, rat plasma, po and sc, all dose levels, read-out: Tmax after extravascular administration", "result": "0.5 to 1", "unit": "h"},
      {"measurement": "Cmax/Cmin ratios", "setting": "rat", "result": "> 100"},
      {"measurement": "total systemic clearance, times higher than GFR", "setting": "rat", "result": "~ 13 fold"},
      {"measurement": "AUCnorm", "setting": "rat brain, IV 1.22 mg eq./kg", "result": "39040 (nM hr/kg) /(kg/mg)"},
      {"measurement": "Observed CmaxNorm", "setting": "rat brain, IV 1.22 mg eq./kg", "result": "9003 nM/ (mg/kg)"},
      {"measurement": "AUCnorm", "setting": "rat brain, PO 1.22 mg eq./kg", "result": "17310 (nM hr/kg) /(kg/mg)"},
      {"measurement": "Observed CmaxNorm", "setting": "rat brain, PO 1.22 mg eq./kg", "result": "1775 nM/ (mg/kg)"},
      {"measurement": "AUCnorm", "setting": "rat brain, PO 10.0 mg eq./kg", "result": "25620 (nM hr/kg) /(kg/mg)"},
      {"measurement": "Observed CmaxNorm", "setting": "rat brain, PO 10.0 mg eq./kg", "result": "2543 nM/ (mg/kg)"},
      {"measurement": "AUCnorm", "setting": "rat brain, SC 1.0 mg eq./kg", "result": "52980 (nM hr/kg) /(kg/mg)"},
      {"measurement": "Observed CmaxNorm", "setting": "rat brain, SC 1.0 mg eq./kg", "result": "10620 nM/ (mg/kg)"},
      {"measurement": "AUCnorm", "setting": "rat brain, SC 10.0 mg eq./kg", "result": "44160 (nM hr/kg) /(kg/mg)"},
      {"measurement": "Observed CmaxNorm", "setting": "rat brain, SC 10.0 mg eq./kg", "result": "7544 nM/ (mg/kg)"},
      {"measurement": "AUC0-∞ increase, fold more than dose proportional", "setting": "[1]", "result": 1.5, "unit": "fold"},
      {"measurement": "Cmax increase, fold more than dose proportional", "setting": "[1]", "result": "~ 1.5 fold"},
      {"measurement": "Cmax and AUC0-∞ increase relative to dose proportional", "setting": "rat brain, sc dose increase from 1 to 10 mg/kg, slightly less than dose proportional", "result": "0.7-0.8 fold"},
      {"measurement": "AUCnorm", "setting": "rat plasma, IV 1.22 mg eq./kg", "result": "1342 (nM hr/kg) /(kg/mg)"},
      {"measurement": "AUCnorm", "setting": "rat plasma, PO 1.22 mg eq./kg", "result": "486.9 (nM hr/kg) /(kg/mg)"},
      {"measurement": "Observed CmaxNorm", "setting": "rat plasma, PO 1.22 mg eq./kg", "result": "89.07 nM/ (mg/kg)"},
      {"measurement": "AUCnorm", "setting": "rat plasma, PO 10.0 mg eq./kg", "result": "1139 (nM hr/kg) /(kg/mg)"},
      {"measurement": "Observed CmaxNorm", "setting": "rat plasma, PO 10.0 mg eq./kg", "result": "369.6 nM/ (mg/kg)"},
      {"measurement": "AUCnorm", "setting": "rat plasma, SC 1.0 mg eq./kg", "result": "1686 (nM hr/kg) /(kg/mg)"},
      {"measurement": "Observed CmaxNorm", "setting": "rat plasma, SC 1.0 mg eq./kg", "result": "985.0 nM/ (mg/kg)"},
      {"measurement": "AUCnorm", "setting": "rat plasma, SC 10.0 mg eq./kg", "result": "2581 (nM hr/kg) /(kg/mg)"},
      {"measurement": "Observed CmaxNorm", "setting": "rat plasma, SC 10.0 mg eq./kg", "result": "618.9 nM/ (mg/kg)"},
      {"measurement": "AUC0-∞ increase, fold more than dose proportional", "setting": "[2]", "result": 2.3, "unit": "fold"},
      {"measurement": "Cmax increase, fold more than dose proportional", "setting": "[2]", "result": "~ 4 fold"},
      {"measurement": "AUC0-∞ increase, fold more than dose proportional", "setting": "rat plasma, sc dose increase from 1 to 10 mg/kg", "result": 1.5, "unit": "fold"},
      {"measurement": "elimination half-life", "setting": "rat, all dose routes and levels (plasma; b142 also brain)", "result": "< 4", "unit": "h"},
      {"measurement": "C max/ C min ratio", "setting": "rat, dose 10 mg/kg", "result": 123},
      {"measurement": "delay in Tmax for brain compared to plasma", "setting": "rat, same dose level and route", "result": "0.25 to 1.5", "unit": "h"},
      {"measurement": "Contribution of active transport to clearance", "setting": "rodent (rat)", "result": "> 100", "unit": "%"},
      {"measurement": "brain elimination half-lives after extravascular administrations", "setting": "summary for rats and mice, rat", "result": "2.28 – 3.8"}
    ]}
  ]
}
